Measurements as given in ChEMBL document CHEMBL1208736, “Synthesis of highly functionalized 2,4-diaminoquinazolines as anticancer and anti-HIV agents” (Bioorg Med Chem Lett, 2010).
Converted amounts (≈) assume the structure as drawn.

Legend:
A-431 = experiment: Cytotoxicity against human A431 cells by MTT assay; type: functional, cell-based
[1] = Therapeutic index, ratio of CC50 for human C8166 cells to EC50 for HIV1 3B; type: cell-based; details: read-out: Ratio CC50/EC50
SK-OV-3 = experiment: Cytotoxicity against human SKOV3 cells by MTT assay; type: functional, cell-based
[2] = test system: Human immunodeficiency virus 1; experiment: Antiviral activity against HIV1 3B infected in human C8166 cells assessed as inhibition of viral replication; type: functional, organism-based; details: Human immunodeficiency virus 1, 3B
A549 = experiment: Cytotoxicity against human A549 cells by MTT assay; type: functional, cell-based
[3] = Cytotoxicity against human C8166 cells after 3 days by MTT assay; type: cell-based
HL-60 = experiment: Cytotoxicity against human HL60 cells by MTT assay; type: functional, cell-based
HepG2 = experiment: Cytotoxicity against human HepG2 cells by MTT assay; type: functional, cell-based

SMILES | IC50 (A-431) [µg/mL] | selectivity ratio [1] | IC50 (SK-OV-3) [µg/mL] | EC50 [2] [µg/mL] | IC50 (A549) [µg/mL] | CC50 at 72 h [3] [µg/mL] | IC50 (HL-60) [µg/mL] | IC50 (HepG2) [µg/mL]
N#Cc1c(Cl)c(Cl)c2nc(N)nc(N)c2c1Cl | 3.3 (≈ 11.4 µM) | 8 | 1.3 (≈ 4.51 µM) | 1 (≈ 3.47 µM) | 29.7 (≈ 103 µM) | 14.3 (≈ 49.6 µM) | 19 (≈ 65.9 µM) | 2.5 (≈ 8.66 µM)
N#Cc1c(F)c(Cl)c2nc(N)nc(N)c2c1F | 1.5 (≈ 5.87 µM) | 7 | 0.14 (≈ 0.548 µM) | 0.1 (≈ 0.391 µM) | 30.8 (≈ 120 µM) | 3.9 (≈ 15.3 µM) | 0.04 (≈ 0.156 µM) | 4.8 (≈ 18.8 µM)
N#Cc1c(F)c(F)c2nc(N)nc(N)c2c1F | 105 (≈ 439 µM) | 59.6 | 8 (≈ 33.5 µM) | 0.6 (≈ 2.51 µM) | > 1000 | 36.4 (≈ 152 µM) | 51 (≈ 213 µM) | 5 (≈ 20.9 µM)
N#Cc1c(N)c(Cl)c2nc(N)nc(N)c2c1Cl | 9.5 (≈ 35.3 µM) | – | 0.8 (≈ 2.97 µM) | – | 188 (≈ 699 µM) | – | 6.7 (≈ 24.9 µM) | 3.7 (≈ 13.7 µM)
N#Cc1c(Nc2ccccc2)c(Cl)c2nc(N)nc(N)c2c1F | 4.8 (≈ 14.6 µM) | 13.5 | 3.7 (≈ 11.3 µM) | 0.4 (≈ 1.22 µM) | > 1000 | 6.3 (≈ 19.2 µM) | 47 (≈ 143 µM) | 5.9 (≈ 17.9 µM)
N#Cc1c(Nc2ccccc2)c(F)c2nc(N)nc(N)c2c1F | 7 (≈ 22.4 µM) | 16.3 | 6.5 (≈ 20.8 µM) | 0.2 (≈ 0.64 µM) | > 1000 | 6.9 (≈ 22.1 µM) | 40 (≈ 128 µM) | 1.4 (≈ 4.48 µM)
COc1ccc(Nc2c(C#N)c(F)c3c(N)nc(N)nc3c2Cl)cc1 | 5.1 (≈ 14.2 µM) | – | 1.6 (≈ 4.46 µM) | – | 103 (≈ 287 µM) | – | 2.2 (≈ 6.13 µM) | 10.2 (≈ 28.4 µM)
N#Cc1c(Nc2ccc(Cl)cc2)c(F)c2nc(N)nc(N)c2c1F | 4.5 (≈ 13 µM) | – | 4.8 (≈ 13.8 µM) | – | 115 (≈ 332 µM) | – | 35 (≈ 101 µM) | 1 (≈ 2.88 µM)
N#Cc1c(NCc2ccccc2)c(Cl)c2nc(N)nc(N)c2c1F | 1.4 (≈ 4.08 µM) | – | 0.8 (≈ 2.33 µM) | – | 34.1 (≈ 99.5 µM) | – | 0.3 (≈ 0.875 µM) | 1.4 (≈ 4.08 µM)
N#Cc1c(NCc2ccccc2)c(F)c2nc(N)nc(N)c2c1F | 12.9 (≈ 39.5 µM) | – | 11 (≈ 33.7 µM) | – | > 1000 | – | 14 (≈ 42.9 µM) | 27.8 (≈ 85.2 µM)
CC(C)(C)Nc1c(C#N)c(F)c2c(N)nc(N)nc2c1Cl | 6.5 (≈ 21.1 µM) | – | 2.1 (≈ 6.8 µM) | – | 313 (≈ 1010 µM) | – | 5.2 (≈ 16.8 µM) | 5.4 (≈ 17.5 µM)
CC(C)(C)Nc1c(C#N)c(F)c2c(N)nc(N)nc2c1F | 11.9 (≈ 40.7 µM) | – | 2.4 (≈ 8.21 µM) | – | > 1000 | – | 18 (≈ 61.6 µM) | 16.2 (≈ 55.4 µM)
CCN(CC)c1c(C#N)c(F)c2c(N)nc(N)nc2c1Cl | 7.3 (≈ 23.6 µM) | – | 0.4 (≈ 1.3 µM) | – | 7.1 (≈ 23 µM) | – | 2.3 (≈ 7.45 µM) | 2 (≈ 6.48 µM)
CCN(CC)c1c(C#N)c(F)c2c(N)nc(N)nc2c1F | 16.4 (≈ 56.1 µM) | – | 1 (≈ 3.42 µM) | – | 26.5 (≈ 90.7 µM) | – | 6.4 (≈ 21.9 µM) | 1.3 (≈ 4.45 µM)
CCCCNc1c(C#N)c(NCCCC)c2c(N)nc(N)nc2c1Cl | 2.5 (≈ 6.91 µM) | – | 0.6 (≈ 1.66 µM) | – | 2 (≈ 5.53 µM) | – | 0.7 (≈ 1.93 µM) | 1.3 (≈ 3.59 µM)
CCCCNc1c(C#N)c(NCCCC)c2c(N)nc(N)nc2c1F | 1 (≈ 2.89 µM) | – | 1.6 (≈ 4.63 µM) | – | > 1000 | – | 1.4 (≈ 4.05 µM) | 2.6 (≈ 7.53 µM)
N#Cc1c(NCc2ccccc2)c(Cl)c2nc(N)nc(N)c2c1NCc1ccccc1 | 716 (≈ 1670 µM) | – | 3.7 (≈ 8.61 µM) | – | > 1000 | – | 8.5 (≈ 19.8 µM) | 19.2 (≈ 44.7 µM)
N#Cc1c(NCc2ccccc2)c(F)c2nc(N)nc(N)c2c1NCc1ccccc1 | 20.7 (≈ 50.1 µM) | – | 2.5 (≈ 6.05 µM) | – | 13.9 (≈ 33.6 µM) | – | 7.2 (≈ 17.4 µM) | 13.4 (≈ 32.4 µM)
N#Cc1c(Oc2ccccc2)c(Cl)c2nc(N)nc(N)c2c1Oc1ccccc1 | > 1000 | – | 14 (≈ 34.7 µM) | – | > 1000 | – | 88 (≈ 218 µM) | > 1000
N#Cc1c(OCc2ccccc2)c(F)c2nc(N)nc(N)c2c1OCc1ccccc1 | 68.3 (≈ 164 µM) | – | 14 (≈ 33.7 µM) | – | > 1000 | – | 62 (≈ 149 µM) | 84 (≈ 202 µM)
N#Cc1c(Sc2ccccc2)c(Cl)c2nc(N)nc(N)c2c1Sc1ccccc1 | 32.4 (≈ 74.3 µM) | 10.6 | 9.4 (≈ 21.6 µM) | 3.2 (≈ 7.34 µM) | > 1000 | 46.8 (≈ 107 µM) | 26 (≈ 59.6 µM) | 5 (≈ 11.5 µM)
CCCSc1c(C#N)c(SCCC)c2c(N)nc(N)nc2c1Cl | 535 (≈ 1450 µM) | 11.5 | 1.2 (≈ 3.26 µM) | 13.3 (≈ 36.1 µM) | > 1000 | > 200 | 7.7 (≈ 20.9 µM) | > 1000
Cc1cn([C@H]2C[C@H](N=[N+]=[N-])[C@@H](CO)O2)c(=O)[nH]c1=O [ZIDOVUDINE] | – | 286000 | – | 0.004 (≈ 0.015 µM) | – | – | – | –
